Measurements taken from patent US10913710B2, “Benzene disulfonamide for the treatment of cancer” (priority 2017, dated 2021).

Tested on: Caco-2 cells
Test: in vitro
Conditions: 10 μM, 2 hours, 37° C.
Description: (§1) Caco-2 Permeability Assay:
(§2) The compound concentration was measured in the receiver as well as the donor well.
With `c1ccc(Cn2c(-c3ccc(OC[C@H](C4CCNCC4)n4c(-c5ccccc5)nc5ccccc54)cc3)nc3ccccc32)cc1` [Deltarasin, reference compound] the “Caco-2 pH 6.5/7.4 Papp A→B Arith. Mean” value was 1.0 10^−6 cm/s and the “Caco-2 pH 6.5/7.4 Papp B→A Arith. Mean” value was 5.1 10^−6 cm/s.
For `Cc1ccc(-n2nc3c(=O)n(CCCC(=O)NCC(C)c4ccccc4)nc(C)c3c2C)cc1` (centres unmarked) [Deltazinone 1, reference compound], the “Caco-2 pH 6.5/7.4 Papp A→B Arith. Mean” value was 41.1 10^−6 cm/s and the “Caco-2 pH 6.5/7.4 Papp B→A Arith. Mean” value was 25.1 10^−6 cm/s.

Tested on: not listed separately
Test: in vitro
Conditions: human, Caco-2, pH 6.5
Description: as §1, §2
`CNc1nccc(CN(CC2CCNCC2)S(=O)(=O)c2ccc(S(=O)(=O)N(Cc3ccc(Cl)cc3)C3CCCC3)cc2)n1` [Compound 16, N1-(4-Chlorobenzyl)-N1-cyclopentyl-N4-((2-(methylamino)pyrimidin-4-yl)methyl)-N4-(piperidin-4-ylmethyl)benzene-1,4-disulfonamide] gave a Papp A→B at 2 h, 10 µM of 1.6 ×10⁻⁶ cm/s and a Papp B→A at 2 h, 10 µM of 13.7 ×10⁻⁶ cm/s.
In the case of `CNc1cc(CN(CC2CCNCC2)S(=O)(=O)c2ccc(S(=O)(=O)N(Cc3ccc(Cl)cc3)C3CCCC3)cc2)ccc1C(=O)O` [Compound 21, 4-(((4-(N-(4-chlorobenzyl)-N-cyclopentylsulfamoyl)-N-(piperidin-4-ylmethyl)phenyl)sulfonamido)methyl)-2-(methylamino)benzoic Acid], the Papp A→B at 2 h, 10 µM is reported as 0.4 ×10⁻⁶ cm/s, the Papp B→A at 2 h, 10 µM is reported as 0.5 ×10⁻⁶ cm/s and the efflux ratio at 2 h, 10 μM is reported as 1.1.
Molecule `O=S(=O)(c1ccc(S(=O)(=O)N(Cc2ccc(Cl)cc2)C2CCCC2)cc1)N(Cc1ccccc1)CC1CCNCC1` [Compound 44, N1-Benzyl-N4-(4-chlorobenzyl)-N4-cyclopentyl-N1-(piperidin-4-ylmethyl)benzene-1,4-disulfonamide] has a Papp A→B at 2 h, 10 µM of 0.6 ×10⁻⁶ cm/s, a Papp B→A at 2 h, 10 µM of 0.6 ×10⁻⁶ cm/s and an efflux ratio at 2 h, 10 μM of 0.9.

Tested on: human peripheral blood mononuclear cells (hPMPBC)
Test: Cytotoxicity assay with human peripheral blood mononuclear cells
Assay type: cell-based
Conditions: not given
Description: Cells were incubated with test substances at titrated concentrations ranging between 30 μM and 1.7 nM for 72 h. After the incubation period, the cells were fixed with 10% (wt/vol) trichloroacetic acid and stained for 30 min with sulforhodamine B (SRB) staining solution prior to removing unbound dye by washing repeatedly with 1% (vol/vol) acetic acid. The protein-bound dye is dissolved in 10 mM Tris base solution for OD (optical density) determination at 510 nm using a microplate reader.
With `CNc1nccc(CN(CC2CCNCC2)S(=O)(=O)c2ccc(S(=O)(=O)N(Cc3ccc(Cl)cc3)C3CCCC3)cc2)n1` [Compound 16, N1-(4-Chlorobenzyl)-N1-cyclopentyl-N4-((2-(methylamino)pyrimidin-4-yl)methyl)-N4-(piperidin-4-ylmethyl)benzene-1,4-disulfonamide] the “concentration up to which hPMBCs proliferation is not impaired” value was at least 30 µM.

Molecular target: PDEδ (Homo sapiens (Human), UniProt O43924)
Test: Fluorescence polarization competition binding assay: displacement titration of labeled Atorvastatin probe for KD
Conditions: fluorescence polarization assay; activity classes; read-out: KD
Description: Example D.2: Displacement Titrations of Labeled Atorvastatin-Probe for the Determination of KD Values
Displacement Titrations of Labeled Atorvastatin-Probe for the Determination of KD Values:
The purification was followed by size exclusion gel filtration on a Superdex 75 S26/60 column using buffer A (25 mM Tris-HCl, pH 7.5, 150 mM NaCl and 3 mM DTE).
For `CNc1cc(CN(CC2CCNCC2)S(=O)(=O)c2ccc(S(=O)(=O)N(Cc3ccc(Cl)cc3)C3CCCC3)cc2)ccc1C(=O)O` [Compound 21, 4-(((4-(N-(4-chlorobenzyl)-N-cyclopentylsulfamoyl)-N-(piperidin-4-ylmethyl)phenyl)sulfonamido)methyl)-2-(methylamino)benzoic Acid], the Kd was 1 to 30 nM.
For `O=S(=O)(c1ccc(S(=O)(=O)N(Cc2ccc(Cl)cc2)C2CCCC2)cc1)N(Cc1ccccc1)CC1CCNCC1` [Compound 44, N1-Benzyl-N4-(4-chlorobenzyl)-N4-cyclopentyl-N1-(piperidin-4-ylmethyl)benzene-1,4-disulfonamide], the Kd was 1 to 30 nM.
`CN(Cc1ccccc1)S(=O)(=O)c1ccc(S(=O)(=O)N(Cc2ccc(Cl)cc2)Cc2ccco2)cc1` [Compound 74, N1-benzyl-N4-(4-chlorobenzyl)-N4-(furan-2-ylmethyl)-N1-methylbenzene-1,4-disulfonamide] gave a Kd of over 1000 nM.
In the case of `COc1ccc(CN(Cc2ccc3c(c2)OCO3)S(=O)(=O)c2ccc(S(=O)(=O)NC3CCCCC3)cc2)cc1OC` [Compound 75, N1-(benzo[d][1,3]dioxol-5-ylmethyl)-N4-cyclohexyl-N1-(3,4-dimethoxybenzyl)benzene-1,4-disulfonamide], the Kd is reported as over 1000 nM.
In the case of `CCOc1ccccc1CN(Cc1ccco1)S(=O)(=O)c1ccc(S(=O)(=O)NC2CCCCC2)cc1` [Compound 76, N1-cyclohexyl-N4-(2-ethoxybenzyl)-N4-(furan-2-ylmethyl)benzene-1,4-disulfonamide], the Kd is reported as 100 to 1000 nM.
With `O=S(=O)(NCC1CCCO1)c1ccc(S(=O)(=O)N(Cc2ccccc2)Cc2ccccc2F)cc1` (centres unmarked) [Compound 77, N1-benzyl-N1-(2-fluorobenzyl)-N4-((tetrahydrofuran-2-yl)methyl)benzene-1,4-disulfonamide] the Kd was 100 to 1000 nM.
In the case of `O=S(=O)(c1ccc(S(=O)(=O)N(Cc2ccc(F)cc2)Cc2ccc(F)cc2)cc1)N1CCCCC1` [Compound 78, N,N-bis(4-fluorobenzyl)-4-(piperidin-1-ylsulfonyl)benzenesulfonamide], the Kd is reported as 100 to 1000 nM.
With `CCOc1ccc(CN(CC2CCCO2)S(=O)(=O)c2ccc(S(=O)(=O)N3CCCCC3)cc2)cc1` (centres unmarked) [Compound 79, N-(4-ethoxybenzyl)-4-(piperidin-1-ylsulfonyl)-N-((tetrahydrofuran-2-yl)methyl)benzenesulfonamide] the Kd was over 1000 nM.
`O=S(=O)(c1ccc(S(=O)(=O)N(Cc2ccc(F)cc2)CC2CCCO2)cc1)N1CCCCC1` (centres unmarked) [Compound 80, N-(4-fluorobenzyl)-4-(piperidin-1-ylsulfonyl)-N-((tetrahydrofuran-2-yl)methyl)benzenesulfonamide] showed a Kd of 30 to 100 nM.
With `COc1ccc(CN(Cc2ccccc2Cl)S(=O)(=O)c2ccc(S(=O)(=O)N3CCCCC3)cc2)cc1` [Compound 81, N-(2-chlorobenzyl)-N-(4-methoxybenzyl)-4-(piperidin-1-ylsulfonyl)benzenesulfonamide] the Kd was 30 to 100 nM.
`O=S(=O)(c1ccc(S(=O)(=O)N(Cc2ccc(Cl)cc2)CC2CCCO2)cc1)N1CCCCC1` (centres unmarked) [Compound 82, N-(4-chlorobenzyl)-4-(piperidin-1-ylsulfonyl)-N-((tetrahydrofuran-2-yl)methyl)benzenesulfonamide] gave a Kd of 100 to 1000 nM.
Molecule `CN(C1CCCCC1)S(=O)(=O)c1ccc(S(=O)(=O)N(Cc2ccc(F)cc2)C2CC2)cc1` [Compound 83, N1-cyclohexyl-N4-cyclopropyl-N4-(4-fluorobenzyl)-N1-methylbenzene-1,4-disulfonamide] has a Kd of 30 to 100 nM.
For `COc1cccc(CN(Cc2ccco2)S(=O)(=O)c2ccc(S(=O)(=O)NCC3CCCO3)cc2)c1` (centres unmarked) [Compound 84, N1-(furan-2-ylmethyl)-N1-(3-methoxybenzyl)-N4-((tetrahydrofuran-2-yl)methyl)benzene-1,4-disulfonamide], the Kd was 1 to 30 nM.
With `CCOc1ccc(CN(Cc2ccc(OC)cc2)S(=O)(=O)c2ccc(S(=O)(=O)N3CCCCC3)cc2)cc1` [Compound 85, N-(4-ethoxybenzyl)-N-(4-methoxybenzyl)-4-(piperidin-1-ylsulfonyl)benzenesulfonamide] the Kd was 100 to 1000 nM.
`O=S(=O)(c1ccc(S(=O)(=O)N(Cc2ccccc2)Cc2ccc(F)cc2)cc1)N1CCCC1` [Compound 86, N-benzyl-N-(4-fluorobenzyl)-4-(pyrrolidin-1-ylsulfonyl)benzenesulfonamide] gave a Kd of over 1000 nM.
Work on `CCN(CC)S(=O)(=O)c1ccc(S(=O)(=O)N(Cc2ccc(F)cc2)Cc2cccc(OC)c2OC)cc1` [Compound 87, N1-(2,3-dimethoxybenzyl)-N4,N4-diethyl-N1-(4-fluorobenzyl)benzene-1,4-disulfonamide] yielded a Kd of over 1000 nM.
Molecule `O=S(=O)(NCC1CCCO1)c1ccc(S(=O)(=O)N(Cc2ccc(F)cc2)C2CCCCC2)cc1` (centres unmarked) [Compound 88, N1-cyclohexyl-N1-(4-fluorobenzyl)-N4-((tetrahydrofuran-2-yl)methyl)benzene-1,4-disulfonamide] has a Kd of 100 to 1000 nM.
`CCOc1ccccc1CN(Cc1ccco1)S(=O)(=O)c1ccc(S(=O)(=O)N(CC)C2CCCCC2)cc1` [Compound 89, N1-cyclohexyl-N4-(2-ethoxybenzyl)-N1-ethyl-N4-(furan-2-ylmethyl)benzene-1,4-disulfonamide] showed a Kd of 1 to 30 nM.
Molecule `O=S(=O)(NCc1ccccc1)c1ccc(S(=O)(=O)N(Cc2ccc(Cl)cc2)Cc2ccco2)cc1` [Compound 90, N1-benzyl-N4-(4-chlorobenzyl)-N4-(furan-2-ylmethyl)benzene-1,4-disulfonamide] has a Kd of 100 to 1000 nM.
Molecule `CN(Cc1ccccc1)S(=O)(=O)c1ccc(S(=O)(=O)N(Cc2ccc(F)cc2)C2CCCC2)cc1` [Compound 91, N1-benzyl-N4-cyclopentyl-N4-(4-fluorobenzyl)-N1-methylbenzene-1,4-disulfonamide] has a Kd of 30 to 100 nM.
For `O=S(=O)(NC1CCCC1)c1ccc(S(=O)(=O)N(Cc2ccccc2)Cc2ccccn2)cc1` [Compound 92, N1-benzyl-N4-cyclopentyl-N1-(pyridin-2-ylmethyl)benzene-1,4-disulfonamide], the Kd was 1 to 30 nM.
`O=S(=O)(NC1CCCC1)c1ccc(S(=O)(=O)N(Cc2ccc(F)cc2)Cc2ccc(F)cc2)cc1` [Compound 93, N1-cyclopentyl-N4,N4-bis(4-fluorobenzyl)benzene-1,4-disulfonamide] gave a Kd of 100 to 1000 nM.
`COc1ccc(CN(Cc2ccc3c(c2)OCO3)S(=O)(=O)c2ccc(S(=O)(=O)N3CCCC(C)C3)cc2)cc1OC` (centres unmarked) [Compound 94, N-(benzo[d][1,3]dioxol-5-ylmethyl)-N-(3,4-dimethoxybenzyl)-4-((3-methylpiperidin-1-yl)sulfonyl)benzenesulfonamide] gave a Kd of over 1000 nM.
Work on `COc1ccc(CN(Cc2ccc(OC)c(OC)c2)S(=O)(=O)c2ccc(S(=O)(=O)N3CCCCC3)cc2)cc1` [Compound 95, N-(3,4-dimethoxybenzyl)-N-(4-methoxybenzyl)-4-(piperidin-1-ylsulfonyl)benzenesulfonamide] yielded a Kd of over 1000 nM.
Work on `CN(Cc1ccccc1)S(=O)(=O)c1ccc(S(=O)(=O)N(Cc2ccccc2)Cc2ccccc2F)cc1` [Compound 96, N1,N4-dibenzyl-N1-(2-fluorobenzyl)-N4-methylbenzene-1,4-disulfonamide] yielded a Kd of over 1000 nM.
In the case of `O=S(=O)(NC1CCCC1)c1ccc(S(=O)(=O)N(Cc2ccccc2)Cc2ccccc2Cl)cc1` [Compound 98, N1-benzyl-N1-(2-chlorobenzyl)-N4-cyclopentylbenzene-1,4-disulfonamide], the Kd is reported as 1 to 30 nM.
Molecule `O=S(=O)(NCC1CCCO1)c1ccc(S(=O)(=O)N(Cc2ccc(Cl)cc2)Cc2ccco2)cc1` (centres unmarked) [Compound 99, N1-(4-chlorobenzyl)-N1-(furan-2-ylmethyl)-N4-((tetrahydrofuran-2-yl)methyl)benzene-1,4-disulfonamide] has a Kd of 100 to 1000 nM.
Molecule `O=S(=O)(NCc1ccccc1)c1ccc(S(=O)(=O)N(Cc2ccc(Cl)cc2)C2CCCC2)cc1` [Compound 100, N1-benzyl-N4-(4-chlorobenzyl)-N4-cyclopentylbenzene-1,4-disulfonamide] has a Kd of 30 to 100 nM.
